These results are taken from patent US20060115502A1, “Cosmetic composition based on cirsimarin” (GATTEFOSSE SAS, priority 2003, published 2006).

One test concerns isolated adipocytes. As to the kind of experiment: Lipolytic activity in vitro on isolated adipocytes (fatty acids released, NEFA C kit). The class given is cell-based, rats. To be noted: cirsimarin tested at 0.5 mM and 0.1 mM; 1 hour at 37° C.; FIG. 2. Here is the method: a. Positive references and products to be assessed • Noradrenalin (syn. Norepinephrine NE): this molecule, with a molar mass of […], is assessed at the final concentration of 1 μM in a Krebs-Ringer buffer at 4% albumin. • Caffeine: this molecule, with a molar mass of 194.2 g, is assessed at the final concentration of 0.5 mM in a Krebs-Ringer buffer at 4% albumin. • Theophylline: this molecule, with a molar mass of 180.2, is assessed at the final concentration of 0.5 mM in a Krebs-Ringer buffer at 4% albumin. • Cirsimarin: this molecule, with a molar mass of 476.44, is tested at 0.5 mM and 0.1 mM. This molecule is first solubilized in a mixture of solvents: NaOH 0.2 M/DMSO (95/5; v/v). […]
The lipolytic activity is measured by the quantity of fatty acids released; for this, a NEFA C (Non Esterified Fatty Acid/Colorimetric) colorimetric dosage kit sold by Wako® Chemical GmbH is used.
The quantity of fatty acids present in tubes 0 minus that present in tubes 00 corresponds to the basal lipolysis of the adipocytes in the buffer. The quantity of fatty acids present in tubes 0 solvent minus that present in tubes 00 corresponds to the basal lipolysis of the adipocytes in the buffer containing the cirsimarin solution solvent. The quantity of fatty acids released in reaction tubes minus that present in tubes 00 corresponds to the lipolysis induced by the molecules studied.

The target of another test is T1, A1 receptor (Homo sapiens, UniProt P30542).
T1 sequence (P30542 1-326): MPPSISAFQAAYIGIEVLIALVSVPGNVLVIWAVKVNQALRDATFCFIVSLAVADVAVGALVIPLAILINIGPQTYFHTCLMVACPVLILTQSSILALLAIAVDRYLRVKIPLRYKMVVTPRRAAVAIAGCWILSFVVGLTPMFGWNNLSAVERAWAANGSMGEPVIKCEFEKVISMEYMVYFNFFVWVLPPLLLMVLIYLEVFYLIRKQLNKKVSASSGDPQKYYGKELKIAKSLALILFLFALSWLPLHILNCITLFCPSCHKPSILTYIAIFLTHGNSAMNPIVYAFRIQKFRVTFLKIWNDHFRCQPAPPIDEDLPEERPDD
To be noted: from literature; cited from earlier work.

The test system of a further test is lipolysis. To be noted: documents by Nogowski and Jacobson; cited from earlier work.

In the case of `COc1cc2oc(-c3ccc(O[C@@H]4O[C@H](CO)[C@@H](O)[C@H](O)[C@H]4O)cc3)cc(=O)c2c(O)c1OC` [cirsimarin, 5-hydroxy-6,7-dimethoxyflavone 4′-O-glucoside], the “lipolytic activity (quantity of fatty acids released)” value in the test with isolated adipocytes is recorded as “proven in vitro lipolytic activity”. For the same compound, the “A1 receptor antagonist properties” value on A1 receptor is recorded as “A1 receptor antagonist properties”.
Take `O=c1c(-c2ccc(O)cc2)coc2cc(O)cc(O)c12` [genistein]: the lipolytic activity entry in the test on lipolysis was “negligible lipolytic activity”. Further, the “A1 receptor antagonist properties” value at A1 receptor is “identified as an A1 receptor antagonist”.
